Results as given in US11352350B2, “IRAK degraders and uses thereof” (Kymera Therapeutics, Inc., priority 2018, dated 2022).
Read-outs that look alike come from different tables or passages of the source.

Legend:
IRAK4 = IRAK4 (Homo sapiens (Human), UniProt Q9NWZ3); assay: IRAK4 MSD degradation in OCI-LY10; assay type: cell-based
Procedure, shortened: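 OCI-LY10 cells treated with 8-point 1:3 dilutions (top 1 to 10 μM final) for 4 to 24 h at 37° C. Lysate IRAK4 measured by MSD sandwich immunoassay (2H9 capture, Y279 detection, SULFO-TAG anti-rabbit). DC50 from three-parameter logistic fit.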

OCI-LY10 = assay: CTG Cell Viability Assay - OCI-LY10; assay type: cell-based, human; settings: Homo sapiens, OCI-LY10, 4 days, read-out: CTG Cell Viability Assay - OCI-LY10: Average external-IC50
Procedure, shortened: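 OCI-LY10 cells exposed to 9-dose, 1:3 dilutions from 10 μM top (0.2% DMSO) for 4 days at 37° C, 5% CO2. Viability by CellTiter-Glo luminescence; IC50 from three-parameter logistic fit.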

[1] = OCI-LY10, 4 hrs, MSD, read-out: IRAK4 MSD degradation in OCI-LY10 at 4 hrs: Average external-Abs DC50
[2] = OCI-LY10, 24 hrs, MSD, read-out: IRAK4 MSD degradation in OCI-LY10 at 24 hrs: Average external-Abs DC50
[3] = OCI-LY10, 4 hrs, read-out: IRAK4 MSD degradation in OCI-LY10 at 4 hrs: DC50
[4] = OCI-LY10, 24 hrs, read-out: IRAK4 MSD degradation in OCI-LY10 at 24 hrs: DC50

IRAK4, sequence (Q9NWZ3 whole entry): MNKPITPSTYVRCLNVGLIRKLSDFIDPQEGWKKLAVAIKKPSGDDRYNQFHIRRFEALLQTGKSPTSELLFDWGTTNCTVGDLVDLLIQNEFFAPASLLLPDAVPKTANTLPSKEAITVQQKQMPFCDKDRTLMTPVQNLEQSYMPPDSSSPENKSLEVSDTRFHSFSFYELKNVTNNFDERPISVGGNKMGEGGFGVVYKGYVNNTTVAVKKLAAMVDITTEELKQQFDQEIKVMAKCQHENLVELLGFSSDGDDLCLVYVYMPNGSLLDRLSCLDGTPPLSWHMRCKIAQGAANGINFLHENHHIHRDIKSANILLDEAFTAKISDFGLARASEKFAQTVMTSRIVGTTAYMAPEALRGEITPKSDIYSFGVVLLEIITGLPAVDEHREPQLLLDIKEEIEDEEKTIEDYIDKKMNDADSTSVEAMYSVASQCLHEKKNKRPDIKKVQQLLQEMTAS

Row | SMILES | DC50 (IRAK4; [1]) [nM] | DC50 (IRAK4; [2]) [nM] | IC50 (OCI-LY10; OCI-Ly10, 96 h) [nM] | DC50 (IRAK4; [3]) [nM] | DC50 (IRAK4; [4]) [nM] | IC50 (OCI-LY10; 96 h) [nM]
1 | CC[C@@H]1CC(=O)N[C@@H]1COc1ncc(C#C[C@H]2CC[C@@H](CN3CCC(OCCCc4cccc5c4n(C)c(=O)n5C4CCC(=O)NC4=O)CC3)CC2)c2cc(C(N)=O)c(OC)cc12 (stereo partly shown) [I-202] | 100 to 1000 | 10 to 100 | > 1000 |  |  | 
2 | Cn1c(=O)n(C2CCC(=O)NC2=O)c2cccc(CCCOCCOCCOCCOCC(=O)N3CCN([C@H]4CC[C@H](Nc5ncnc6[nH]cc(C7CCOCC7)c56)CC4)CC3)c21 (stereo partly shown) [I-53] | 100 to 1000 | 10 to 100 | > 1000 |  |  | 
3 | CN(Cc1ccc(OCCCNc2cccc3c2C(=O)N(C2CCC(=O)NC2=O)C3=O)nc1)C[C@H]1CC[C@H](n2cc(NC(=O)c3cnn4ccc(N5CCOCC5)nc34)c(C(F)F)n2)CC1 (stereo partly shown) [I-477, N-(3-(difluoromethyl)-1-((1r,4r)-4-((((6-(3-((2-(2,6-dioxopiperidin-3-yl)-1,3-dioxoisoindolin-4-yl)amino)propoxy)pyridin-3-yl)methyl)(methyl)amino)methyl)cyclohexyl)-1H-pyrazol-4-yl)-5-morpholinopyrazolo[1,5-a] pyrimidine-3-carboxamide] |  |  | 500 to 1000 | 10 to 100 | 10 to 100 | 
4 | CN(C[C@H]1CC[C@H](n2cc(NC(=O)c3cnn4ccc(N5CCOCC5)nc34)c(C(F)F)n2)CC1)C1CCN(Cc2cccc3c2n(C)c(=O)n3C2CCC(=O)NC2=O)CC1 (stereo partly shown) [I-213] | < 10 |  | > 1000 |  |  | 
5 | C[C@@H](CCNc1cccc2c1C(=O)N(C1CCC(=O)NC1=O)C2=O)OC1CCN(C[C@H]2CC[C@H](n3cc(NC(=O)c4cnn5ccc(N6C[C@H]7C[C@@H]6CO7)nc45)c(C(F)F)n3)CC2)CC1 (stereo partly shown) [I-551] |  |  | < 50 | 100 to 1000 |  | 
6 | C=C(C)c1nn([C@H]2CC[C@H](CN3CCC(OCCCc4cccc5c4n(C)c(=O)n5C4CCC(=O)NC4=O)CC3)CC2)cc1NC(=O)c1cnn2ccc(NCC3CC3)nc12 (stereo partly shown) [I-172] | 100 to 1000 |  | > 1000 |  |  | 
7 | O=C1CCC(N2C(=O)c3cccc(NCCCOC[C@H]4CC[C@H](n5cc(NC(=O)c6cnn7ccc(N8C[C@H]9C[C@@H]8CO9)nc67)c(C(F)F)n5)CC4)c3C2=O)C(=O)N1 (stereo partly shown) [I-375] | > 1000 |  | 500 to 1000 |  |  | 
8 | CC[C@@H]1CC(=O)N[C@@H]1COc1ncc(C#C[C@H]2CC[C@H](CN(C)CCCOCCCc3cccc4c3n(C)c(=O)n4C3CCC(=O)NC3=O)CC2)c2cc(C(N)=O)c(OC)cc12 (stereo partly shown) [I-219] | 10 to 100 | 10 to 100 | > 1000 |  |  | 
9 | O=C1CCC(n2c3cccc(CCCOC4CCN(C[C@H]5CC[C@H](n6cc(NC(=O)c7cnn8ccc(N9CCOCC9)nc78)c(C(F)F)n6)CC5)CC4)c3c3cccnc32)C(=O)N1 (stereo partly shown) [I-196] | 10 to 100 |  | > 1000 |  |  | 
10 | CN(CCCOCCCNC(=O)c1ccc(CNCc2ccc(-c3ccc4c(cnn4CC4CC4)c3)cc2)cc1)C(=O)[C@H]1CC[C@H](n2cc(NC(=O)c3coc(-c4ccnc(NCC5CC5)c4)n3)c(C(F)F)n2)CC1 [I-132] | > 1000 | > 1000 | > 1000 |  |  | 
11 | CN(CC1CCN(c2cccc3c2C(=O)N(C2CCC(=O)NC2=O)C3=O)CC1)C[C@H]1CC[C@H](n2cc(NC(=O)c3cnn4ccc(N5CCOCC5)nc34)c(C(F)F)n2)CC1 (stereo partly shown) [I-220] | > 1000 | 100 to 1000 | > 1000 |  |  | 
12 | CC[C@@H]1[C@H](F)C(=O)N[C@@H]1COc1ncc(C#C[C@H]2CC[C@H](CN(C)CCCOCCCN)CC2)c2cc(C(N)=O)c(OC)cc12 [I-316, 4-[2-[4-[[3-(3-Aminopropoxy)propyl-methyl-amino]methyl]cyclohexyl]ethynyl]-1-[[(2S, 3S, 4S)-3-ethyl-4-fluoro-5-oxo-pyrrolidin-2-yl]methoxy]-7-methoxy-isoquinoline-6-carboxamide] | > 1000 | > 1000 |  |  |  | > 1000
13 | CN(Cc1ccc(-n2cc(NC(=O)c3cnn4ccc(N5CCOCC5)nc34)c(C(F)F)n2)cc1)[C@H]1CC[C@H](Nc2cccc3c2C(=O)N(C2CCC(=O)NC2=O)C3=O)CC1 (stereo partly shown) [I-476] |  |  | > 1000 | 10 to 100 | 10 to 100 | 
14 | CN(CCC1CCN(c2cccc3c2C(=O)N(C2CCC(=O)NC2=O)C3=O)CC1)C[C@H]1CC[C@H](n2cc(NC(=O)C3CNN4C=CC(N5CCOCC5)=NC34)c(C(F)F)n2)CC1 (stereo partly shown) [I-223] | 10 to 100 |  | > 1000 |  |  | 
15 | O=C1CCC(N2C(=O)c3cccc(CCCOC4CCN(C[C@H]5CC[C@H](n6cc(NC(=O)c7cnn8ccc(N9CCOCC9)nc78)c(C(F)F)n6)CC5)CC4)c3C2=O)C(=O)N1 (stereo partly shown) [I-207] | 10 to 100 |  | > 1000 |  |  | 
16 | O=C1CCC(N2Cc3c(OCc4ccc(CN5CCN(C[C@H]6CC[C@H](n7cc(NC(=O)c8coc(-c9ccnc(NCC%10CC%10)c9)n8)c(C(F)F)n7)CC6)CC5)cc4)cccc3C2=O)C(=O)N1 (stereo partly shown) [I-379] | > 1000 | > 1000 | 100 to 500 |  |  | 
17 | O=C1CCC(N2C(=O)c3cccc(NCCCOC4CCN(Cc5ccc(-n6cc(NC(=O)c7cnn8ccc(N9CCOCC9)nc78)c(C(F)F)n6)cc5)CC4)c3C2=O)C(=O)N1 (stereo not shown) [I-403] | > 1000 | 10 to 100 | 50 to 100 |  |  | 
18 | CN(CCc1ccc(CCNc2cccc3c2C(=O)N(C2CCC(=O)NC2=O)C3=O)cc1)C[C@H]1CC[C@H](n2cc(NC(=O)c3cnn4ccc(N5C[C@H]6C[C@@H]5CO6)nc34)c(C(F)F)n2)CC1 (stereo partly shown) [I-336] | 100 to 1000 | 10 to 100 | 50 to 100 |  |  | 
19 | CN(CCCOCCCNC(=O)c1ccc(CNCc2ccc(-c3ccc4c(cnn4CC4CC4)c3)cc2)cc1)C[C@H]1CC[C@H](n2cc(NC(=O)c3coc(-c4ccnc(NCC5CC5)c4)n3)c(C(F)F)n2)CC1 [I-131] | > 1000 | > 1000 | > 1000 |  |  | 
20 | CC(C)(O)c1nn([C@H]2CC[C@H](CN3CCC(OCCNc4cccc5c4C(=O)N(C4CCC(=O)NC4=O)C5=O)CC3)CC2)cc1NC(=O)c1cnn2ccc(N3CCOCC3)nc12 (stereo partly shown) [I-217] | 100 to 1000 | > 1000 | 50 to 100 |  |  | 
21 | CN[C@@H](C)C(=O)N[C@H](C(=O)N1CCC[C@H]1c1nc(C(=O)c2cccc(OCCOCCOCCOCCOCCNC[C@H]3CC[C@H](n4cc(NC(=O)c5coc(-c6ccnc(NCC7CC7)c6)n5)c(C(F)F)n4)CC3)c2)cs1)C1CCCCC1 [I-274] | 100 to 1000 | 100 to 1000 | 500 to 1000 |  |  | 
22 | CN(CCCOCCCNc1cccc2c1C(=O)N(C1CCC(=O)NC1=O)C2=O)Cc1ccc(-n2cc(NC(=O)c3coc(-c4ccnc(NCC5CC5)c4)n3)c(C(F)F)n2)cc1 (stereo not shown) [I-392] | 100 to 1000 | 10 to 100 | 100 to 500 |  |  | 
23 | CN(CC1CCC(n2cc(NC(=O)c3cnn4ccc(C5CCOCC5)nc34)c(C(F)F)n2)CC1)[C@H]1CC[C@H](Nc2cccc3c2C(=O)N(C2CCC(=O)NC2=O)C3=O)CC1 (stereo partly shown) [I-478] |  |  | > 1000 | 100 to 1000 | 10 to 100 | 
24 | CN[C@@H](C)C(=O)N[C@H](C(=O)N1Cc2cc(OCCOCCOCCNC[C@H]3CC[C@H](n4cc(NC(=O)c5coc(-c6ccnc(NCC7CC7)c6)n5)c(C(F)F)n4)CC3)ccc2C[C@H]1C(=O)N[C@@H]1CCCc2ccccc21)C(C)(C)C [I-161] | > 1000 | > 1000 | > 1000 |  |  | 
25 | O=C1CCC(N2Cc3c(OC4CC5(CCN(C[C@H]6CC[C@H](n7cc(NC(=O)c8cnn9ccc(N%10C[C@H]%11C[C@@H]%10CO%11)nc89)c(C(F)F)n7)CC6)CC5)C4)cccc3C2=O)C(=O)N1 (stereo partly shown) [I-328] | 10 to 100 | < 10 | < 50 |  |  | 
26 | CN(C[C@H]1CC[C@H](n2cc(NC(=O)c3coc(-c4ccnc(NCC5CC5)c4)n3)c(C(F)F)n2)CC1)C1CN(Cc2cccc3c2n(C)c(=O)n3C2CCC(=O)NC2=O)C1 (stereo partly shown) [I-240] | < 10 |  | > 1000 |  |  | 
